Source: publication PMC9079742, “Branched copolymer-stabilised nanoemulsions as new candidate oral drug delivery systems” (RSC Advances, 2018)
In brackets after ≈: the same amount, converted by molar mass.

Key:
[1] = tested on: Caco-2 monolayers; assay: Caco-2 transcellular permeation model (transwell); type: in vitro ADME, human
Procedure: (§1) The apparent permeability (Papp) of the candidate drug-loaded nanoemulsions were determined using the Caco-2 cells after forming a confluent monolayer, with tight junctions between the cells (confirmed by TEER), on a porous transwell membrane; this is a widely-used model for oral absorption.[34] Within this assay, the cells polarise to present microvilli on the gut (apical; A) side of the cells,[35] reproducing the morphology and function of the small intestine. The blood (basolateral; B) side of the cells models the interface with the systemic circulation. […]
(§2) droplets were below 300 nm in diameter.
(§3) During the 2 minutes, the vial was […]
(§4) to achieve a creamy emulsion. […]
(§5) Caco-2 Transcellular Permeation Model
(§6) After this time, culture media was […]
(§7) and immediately frozen at -40°C for subsequent batch analysis via HPLC. Sink conditions were determined as being satisfied when <10% of starting concentration had permeated. Papp was determined with the following equation: […]
(§8) Where A is the concentration in the sample, T is the time in seconds at which the sample was collected, V is the total volume of sample contained in the chamber being sampled, S is the initial starting concentration of the drug and 0.3 is the surface area in cm2 of the transwell insert on which the Caco-2 […]
(§9) High Performance Liquid Chromatography
(§10) 200 μL of sample (thawed from -40°C storage) was added to 1 ml of HPLC grade acetonitrile in a universal tube and vortexed for 30 seconds. The universal tubes where then centrifuged for 5 minutes at 4°C at 13,300 rpm, after which the supernatant was transferred to fresh glass tubes. These tubes were placed in a vacuum centrifuge drier and heated to 35°C to remove excess acetonitrile and dry down the sample to a pellet. Pellets were then re-suspended in 200 μL fresh 20% HPLC grade acetonitrile, 80% HPLC grade water, and transferred to 1.8 ml HPLC vials and sealed for HPLC analysis.
(§11) The mobile phase (C) consisted of 95% water and 5% acetonitrile, with 5mM final concentration of ammonium formate. The elution buffer (D) consisted of 90% acetonitrile and 10% water with no ammonium formate. A calibration curve was produced using a 1:2 dilution from 20,000 ng/ml to 39 ng/ml, with separate quality control samples at 600 ng/ml, 3000 ng/ml and 15,000 ng/ml. The initial starting conditions of each run were 100% C, changing to 92% D / 8% C after 30 seconds, holding at this percentage for 5 minutes before raising to 100% D for 1 minute. The final 2 minutes of the run returned the column to 100% of C, ready for the injection of the next sample. The EFV was eluted at around 4.3 minutes into the run. The lower limit of quantification was 78 ng/mL, with intraday variability <20% and inter day variability <15%. […]
(§12) Plates were incubated for 5 days at 37°C and 5%
(§13) CO2. Activity of both aqueous and nanoformulations against HIV-1 IIIB was determined by quantifying the amount of live cells in each condition by means of an MTT cell viability assay. Concentrations of […]
(§14) was due solely to HIV infection.

[2] = Caco-2 transcellular permeation model (transwell); type: in vitro ADME, human; details: human, Caco-2; for Papp A→B at 2 h, 10 μM / Papp B→A at 2 h, 10 μM: aq/DMSO solution or castor oil nanoemulsion, N=4
Procedure: as §1, §2, §3, §4, §5, §6, §7, §8, §9, §10, §11, §12, §13, §14

[3] = MTT cytotoxicity assay; type: cell-based; details: human, Caco-2 cells, aqueous/DMSO solution
[4] = Drug solubility in natural oils; type: physicochemical; details: oil or lipid
[5] = tested on: HIV-1 IIIB; assay: Antiviral activity assay (MTT viability of infected MT4 cells); type: cell-based; details: Human immunodeficiency virus 1, 120 h, HIV-1 IIIB-infected MT4 cells, 5 days incubation, N = 4
Source text: The potential ability to enhance the oral permeability of the antiretroviral drugs LPV and EFV may lead to increased drug absorption and a subsequent decrease in oral dose required to treat HIV patients. Drug permeation through the gut model employed here provides no information about whether free drug or intact nanoemulsions have traversed the epithelium. The potential for nanoemulsions entering the systemic circulation after in vivo absorption necessitates assessment of antiviral activity of the ARV-containing droplets and this was undertaken using HIV-1 IIIB-infected MT4 cells. […] Activity against the virus was determined by using an MTT cell viability assay to assess the number of live cells as viral replication leads to cell death.
Fig. 4 Antiviral activity of aqueous (circles) and nanoemulsion (triangles) formulations containing (A) EFV; and (B) LPV after 5 days incubation with MT4 cells and HIV-1 IIIB. Viral kill was derived by using MTT assay to quantify the metabolic activity of the MT4 cells, using this a proxy of cellular viability. […] Data expressed as ± SEM, N = 4. […]
as §7

Permeation in emulsion form relative to control within aqueous DMSO vehicle ([1]; human, Caco-2, 2 h, 10 μM) | SMILES | Difference in permeation, emulsion form versus aqueous DMSO control ([1]; Caco-2) | efflux ratio at 1 h [2] | efflux ratio at 2 h [2] | Papp A→B at 2 h, 10 μM [2] [×10⁻⁶ cm/s] | Papp B→A at 2 h, 10 μM [2] [×10⁻⁶ cm/s] | CC50 [3] [µM] | solubility ([4]; in castor oil) [mg/mL] | solubility ([4]; in peanut oil) [mg/mL] | solubility ([4]; in soybean oil) [mg/mL] | IC50 [5] [µM]
– | O=C1Nc2ccc(Cl)cc2[C@@](C#CC2CC2)(C(F)(F)F)O1 [EFV, efavirenz] | very limited difference | 3.98 | 3.11 | 8.21 | 25.5 | 55 | ≥ 50 | ≥ 50 | ≥ 50 | ~1.25
approximately 10 fold | Cc1cccc(C)c1OCC(=O)N[C@@H](Cc1ccccc1)[C@@H](O)C[C@H](Cc1ccccc1)NC(=O)[C@H](C(C)C)N1CCCNC1=O [LPV, lopinavir] | – | 1.11 | 4.78 | 2.7 | 12.9 | – | ~25 (≈ 39.8 mM) | < 12 | < 12 | 0.46
